Experimental findings from BindingDB's records for PubMed 2017157 (Medical Research Service, 1991) are described below.

In this experiment the target is D(2) dopamine receptor (Mus musculus, UniProt P61168).
Sequence of D(2) dopamine receptor (P61168 whole entry): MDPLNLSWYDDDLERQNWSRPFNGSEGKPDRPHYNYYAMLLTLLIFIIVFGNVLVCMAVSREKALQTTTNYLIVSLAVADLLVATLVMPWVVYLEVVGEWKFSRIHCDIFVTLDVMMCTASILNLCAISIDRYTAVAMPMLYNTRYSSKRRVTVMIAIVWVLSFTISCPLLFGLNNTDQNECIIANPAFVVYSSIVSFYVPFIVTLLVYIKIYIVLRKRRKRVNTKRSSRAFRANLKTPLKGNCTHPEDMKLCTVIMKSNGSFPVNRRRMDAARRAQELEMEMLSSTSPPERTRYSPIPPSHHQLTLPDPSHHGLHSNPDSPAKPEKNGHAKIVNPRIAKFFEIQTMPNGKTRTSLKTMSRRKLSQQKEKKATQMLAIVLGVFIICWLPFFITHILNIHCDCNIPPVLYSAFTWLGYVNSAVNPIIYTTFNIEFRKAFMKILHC
Compound `CCCN1CCCC(c2cccc(O)c2)C1` (configuration not stated) [CAS_85976-54-1] had a Ki of 5620 nM. This lies in the single-digit micromolar range.

`O=c1[nH]c2ccccc2n1C1CCN(CCCC(c2ccc(F)cc2)c2ccc(F)cc2)CC1` [1-(1-(4,4-bis(4-fluorophenyl)butyl)piperidin-4-yl)-1H-benzo[d]imidazol-2(3H)-one]: the affinity corresponds to a Ki of 0.19 nM.

For `CCN1CCC[C@H]1CNC(=O)c1cc(I)cc(OC)c1OC`, the inhibition constant Ki is 0.05 nM.

`O=C(O)c1ccccc1C(=O)Nc1cccc2ccccc12` [NPA,(+)]: the Ki stood at 7.07 nM.

The compound `CCN1CCCC1CNC(=O)c1cc(S(N)(=O)=O)ccc1OC` (configuration not stated) [N-[(1-ethylpyrrolidin-2-yl)methyl]-2-methoxy-5-sulfamoylbenzamide] returned a Ki of 14.4 nM. This Ki is about 2-fold higher than that of the compound before.

Regarding `CC(C)C[C@H]1C(=O)N2CCC[C@H]2[C@]2(O)O[C@](NC(=O)[C@@H]3C=C4c5cccc6[nH]c(Br)c(c56)C[C@H]4N(C)C3)(C(C)C)C(=O)N12` [Bromocriptine+ (GTP+)], the Ki was found to be 0.69 nM. This Ki is about 21-fold lower than that of the compound before.

Compound `OCCN1CCN(CC/C=C2/c3ccccc3Sc3ccc(C(F)(F)F)cc32)CC1` [(cis) 2-{4-[3-(2-Trifluoromethyl-thioxanthen-9-ylidene)-propyl]-piperazin-1-yl}-ethanol(Flupentixol)] yielded a Ki of 0.48 nM.

The Ki is the dissociation constant of the complex between target and ligand, obtained from inhibition or displacement. A low value points to tighter binding.
